Experimental data: ChEMBL document CHEMBL3603744, “Structure activity relationship of C-2 ether substituted 1,5-naphthyridine analogs of oxabicyclooctane-linked novel bacterial topoisomerase inhibitors as broad-spectrum antibacterial agents (Part-5)” (Bioorg Med Chem Lett, 2015)
Converted amounts (≈) assume the structure as drawn. The source made the active and inactive calls. How the calls were made is not given here.

How the values were obtained:
Staphylococcus aureus [1] = assay: Antimicrobial activity against Staphylococcus aureus infected in iv dosed mouse bacteremia survival model; type: functional
Acinetobacter baumannii = assay: Antimicrobial activity against Acinetobacter baumannii IID876 by micro broth dilution or agar based method; type: functional
Streptococcus pneumoniae = assay: Antimicrobial activity against Streptococcus pneumoniae IID553 by micro broth dilution or agar based method; type: functional
Pseudomonas aeruginosa = assay: Antimicrobial activity against Pseudomonas aeruginosa PAO1 by micro broth dilution or agar based method; type: functional
Escherichia coli = assay: Antimicrobial activity against Escherichia coli ATCC 25922 by micro broth dilution or agar based method; type: functional
Enterococcus faecium = assay: Antimicrobial activity against vancomycin-resistant Enterococcus faecium VanA by micro broth dilution or agar based method; type: functional
Staphylococcus aureus [2] = assay: Antimicrobial activity against methicillin-resistant Staphylococcus aureus OIT971 by micro broth dilution or agar based method; type: functional, organism-based
Staphylococcus aureus [3] = assay: Resistance index, ratio of MIC for quinolone-resistant Staphylococcus aureus MS5935 to MIC for quinolone-[…]; type: functional
Staphylococcus aureus [4] = assay: Antimicrobial activity against Staphylococcus aureus Smith by micro broth dilution or agar based method; type: functional
Staphylococcus aureus [5] = assay: Antimicrobial activity against Staphylococcus aureus infected in orally dosed mouse bacteremia survival model; type: functional; settings: po
Mus musculus = assay: Dose normalized AUC in C57BL/6 mouse at 2 mg/kg, iv or 5 mg/kg, po; type: ADME, organism-based; settings: in vivo
[6] = Oral bioavailability in C57BL/6 mouse at 5 mg/kg; type: ADME, organism-based; settings: in vivo
[7] = Volume of distribution at steady state in C57BL/6 mouse at 2 mg/kg, iv or 5 mg/kg, po; type: ADME, organism-based; settings: in vivo, read-out: Vdss
[8] = Volume of distribution at steady state in Sprague-Dawley rat at 2 mg/kg, iv or 5 mg/kg, po; type: ADME, organism-based; settings: in vivo, read-out: Vdss
[9] = Plasma clearance in C57BL/6 mouse at 2 mg/kg, iv or 5 mg/kg, po; type: ADME, organism-based
[10] = Half life in C57BL/6 mouse at 2 mg/kg, iv or 5 mg/kg, po; type: ADME, organism-based; settings: in vivo
[11] = Oral bioavailability in Sprague-Dawley rat at 5 mg/kg; type: ADME, organism-based; settings: in vivo
[12] = Plasma clearance in Sprague-Dawley rat at 2 mg/kg, iv or 5 mg/kg, po; type: ADME, organism-based
Rattus norvegicus = assay: Dose normalized AUC in Sprague-Dawley rat at 2 mg/kg, iv or 5 mg/kg, po; type: ADME, organism-based; settings: in vivo
[13] = Half life in Sprague-Dawley rat at 2 mg/kg, iv or 5 mg/kg, po; type: ADME, organism-based; settings: in vivo
Staphylococcus aureus [14] = assay: Antimicrobial activity against quinolone-sensitive Staphylococcus aureus MS5935
Staphylococcus aureus [15] = assay: Antimicrobial activity against quinolone-resistant Staphylococcus aureus MS5935; type: functional

Row | Compound | ED50 (Staphylococcus aureus [1]) | MIC (Acinetobacter baumannii) | MIC (Streptococcus pneumoniae) | MIC (Pseudomonas aeruginosa) | MIC (Escherichia coli) | MIC (Enterococcus faecium) | growth inhibition (GI) (Staphylococcus aureus [2]) | Ratio (Staphylococcus aureus [3]) | MIC (Staphylococcus aureus [4]) | ED50 (Staphylococcus aureus [5]) | also measured
1 | COCCOc1ccc2ncc(F)c(CCC34CCC(NCc5ccc6c(n5)NC(=O)CO6)(CC3)CO4)c2n1.Cl | 7.2 mg/kg | – | – | – | – | – | – | – | – | – | –
2 | NCCCCCOc1ccc2ncc(F)c(CCC34CCC(NCc5ccc6c(n5)NC(=O)CO6)(CC3)CO4)c2n1 | – | 4 µg/mL (≈ 7.08 µM) | 1 µg/mL (≈ 1.77 µM) | 16 µg/mL (≈ 28.3 µM) | 4 µg/mL (≈ 7.08 µM) | 8 µg/mL (≈ 14.2 µM) | Active | <4 | 0.5 µg/mL (≈ 0.885 µM) | – | –
3 | Cl.O=C1COc2ccc(CNC34CCC(CCc5c(F)cnc6ccc(OCCCCCO)nc56)(CC3)OC4)nc2N1 | 21 mg/kg | – | – | – | – | – | – | – | – | 43 mg/kg | –
4 | CN(C)C(=O)COc1ccc2ncc(F)c(CCC34CCC(NCc5ccc6c(n5)NC(=O)CO6)(CC3)CO4)c2n1 | – | 16 µg/mL (≈ 28.3 µM) | 4 µg/mL (≈ 7.08 µM) | 16 µg/mL (≈ 28.3 µM) | 16 µg/mL (≈ 28.3 µM) | 16 µg/mL (≈ 28.3 µM) | Active | <4 | 1 µg/mL (≈ 1.77 µM) | – | –
5 | CC(C)Oc1ccc2ncc(F)c(CCC34CCC(NCc5ccc6c(n5)NC(=O)CO6)(CC3)CO4)c2n1 | – | 8 µg/mL (≈ 15.3 µM) | 2 µg/mL (≈ 3.83 µM) | 32 µg/mL (≈ 61.4 µM) | 16 µg/mL (≈ 30.7 µM) | 8 µg/mL (≈ 15.3 µM) | Active | <4 | 0.25 µg/mL (≈ 0.479 µM) | – | –
6 | CC(C)COc1ccc2ncc(F)c(CCC34CCC(NCc5ccc6c(n5)NC(=O)CO6)(CC3)CO4)c2n1 | – | 2 µg/mL (≈ 3.73 µM) | 0.25 µg/mL (≈ 0.467 µM) | 16 µg/mL (≈ 29.9 µM) | 16 µg/mL (≈ 29.9 µM) | 4 µg/mL (≈ 7.47 µM) | Active | <4 | 0.063 µg/mL (≈ 0.118 µM) | – | –
7 | Cl.O=C1COc2ccc(CNC34CCC(CCc5c(F)cnc6ccc(OCCCO)nc56)(CC3)OC4)nc2N1 | 5.9 mg/kg | – | – | – | – | – | – | – | – | 15 mg/kg | AUC/dose (Mus musculus): 1.6 µM·h/mg/kg; bioavailability [6]: 16%; Vd [7]: 1.46 L/kg; Vd [8]: 0.84 L/kg; clearance [9]: 38.7 mL/min/kg; half-life [10]: 90 min; bioavailability [11]: 49%; clearance [12]: 33.2 mL/min/kg; AUC/dose (Rattus norvegicus): 1.9 µM·h/mg/kg; half-life [13]: 34.8 min
8 | Cl.O=C1COc2ccc(CNC34CCC([C@@H](O)Cc5c(F)cnc6ccc(OCCCO)nc56)(CC3)OC4)nc2N1 | 5.5 mg/kg | – | – | – | – | – | – | – | – | > 50 mg/kg | –
9 | COc1ccc2ncc(F)c(C[C@H](O)C34CCC(NCc5ccc6c(n5)NC(=O)CO6)(CC3)CO4)c2n1.Cl | 2.5 mg/kg | – | – | – | – | – | – | – | – | 2.2 mg/kg | –
10 | CNC(=O)COc1ccc2ncc(F)c(CCC34CCC(NCc5ccc6c(n5)NC(=O)CO6)(CC3)CO4)c2n1 | – | 4 µg/mL (≈ 7.26 µM) | 0.5 µg/mL (≈ 0.908 µM) | 16 µg/mL (≈ 29.1 µM) | 16 µg/mL (≈ 29.1 µM) | 4 µg/mL (≈ 7.26 µM) | Active | <4 | 0.125 µg/mL (≈ 0.227 µM) | – | –
11 | O=C1COc2ccc(CNC34CCC(CCc5c(F)cnc6ccc(OCCOCCO)nc56)(CC3)OC4)nc2N1 | – | 16 µg/mL (≈ 28.2 µM) | 4 µg/mL (≈ 7.05 µM) | 32 µg/mL (≈ 56.4 µM) | 32 µg/mL (≈ 56.4 µM) | 16 µg/mL (≈ 28.2 µM) | Active | <4 | 0.25 µg/mL (≈ 0.44 µM) | – | –
12 | Cl.NCCCOc1ccc2ncc(F)c(CCC34CCC(NCc5ccc6c(n5)NC(=O)CO6)(CC3)CO4)c2n1 | 15 mg/kg | – | – | – | – | – | – | – | – | > 50 mg/kg | –
13 | Cl.O=C1COc2ccc(CNC34CCC(CCc5c(F)cnc6ccc(OCCO)nc56)(CC3)OC4)nc2N1 | 13 mg/kg | – | – | – | – | – | – | – | – | > 50 mg/kg | –
14 | C[C@H]1COc2c(N3CCN(C)CC3)c(F)cc3c(=O)c(C(=O)O)cn1c23.C[C@H]1COc2c(N3CCN(C)CC3)c(F)cc3c(=O)c(C(=O)O)cn1c23.O [LEVOFLOXACIN] | – | – | – | – | – | – | – | >64 | – | – | MIC (Staphylococcus aureus [14]): 0.25 µg/mL; MIC (Staphylococcus aureus [15]): > 16 µg/mL
15 | COc1ccc2ncc(F)c(CCC34CCC(NCc5ccc6c(n5)NC(=O)CO6)(CC3)CO4)c2n1.Cl | 5.5 mg/kg | – | – | – | – | – | – | – | – | 17 mg/kg | –
